≈ marks a conversion by molar mass, not a printed value.
Assays:
Kinase A and SpoOF = biological target: T1, Kinase A and SpoOF (Bacillus subtilis, UniProt P16497); experiment: Autophosphorylation of Kinase A and Transphosphorylation of SpoOF Assay (HPK in vitro assay); type: biochemical; conditions: inhibition of KinA autophosphorylation / SpoOF transphosphorylation, inhibitor concentrations from 1 to 500 μM
T1 construct: made in house; host or cells: recombinant E. coli (overexpression)
T1 sequence (P16497 1-606): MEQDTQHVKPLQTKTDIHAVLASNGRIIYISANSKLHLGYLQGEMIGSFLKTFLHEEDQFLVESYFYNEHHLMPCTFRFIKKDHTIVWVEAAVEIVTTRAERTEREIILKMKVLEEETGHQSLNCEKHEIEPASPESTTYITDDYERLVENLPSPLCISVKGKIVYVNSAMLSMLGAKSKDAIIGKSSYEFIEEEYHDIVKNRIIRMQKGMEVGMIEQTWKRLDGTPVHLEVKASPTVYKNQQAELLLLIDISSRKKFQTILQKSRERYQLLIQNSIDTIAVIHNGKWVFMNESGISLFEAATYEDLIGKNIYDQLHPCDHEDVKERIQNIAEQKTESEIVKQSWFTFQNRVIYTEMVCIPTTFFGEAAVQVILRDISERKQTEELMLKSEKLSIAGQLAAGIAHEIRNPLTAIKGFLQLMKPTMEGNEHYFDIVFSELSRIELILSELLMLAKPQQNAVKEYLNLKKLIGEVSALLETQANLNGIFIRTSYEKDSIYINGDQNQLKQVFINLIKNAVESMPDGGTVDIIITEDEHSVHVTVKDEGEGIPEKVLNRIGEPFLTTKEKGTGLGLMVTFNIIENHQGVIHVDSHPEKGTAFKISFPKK
How it was run: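 Recombinant KinA and SpoOF (from E. coli) preincubated 15 min on ice with compound (1.0 mM solution in 5% DMSO, stock), then 10 min at room temperature with [32P]ATP. Labelled proteins resolved by SDS gel, quantified by phosphoimager; IC50 from 1–500 μM compound range.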

gram positive bacteria = experiment: MIC antimicrobial assay, microdilution broth method (NCCLS), gram positive bacteria; type: cell-based; conditions: range over the gram positive test organisms; 35° C., 16-20 hours
Experimental: (§1) 2. MIC Anitimicrobial Assay
(§2) The in vitro antimicrobial activity of the compounds was determined by the microdilution broth method following the test method from the National Committee for Laboratory Standards (NCCLS). This method is described in the NCCLS Document M7-A2, Vol. 10, No. 8 "Methods for Dilution Antimicrobial Susceptibility Test for Bacteria that Grow Aerobically--Second Edition."
(§3) In this method two-fold serial dilutions of drug in cation supplemented Mueller-Hinton broth are added to wells in microdilution trays. The test organisms are prepared by adjusting the turbidity of actively growing broth cultures so that the final concentration of test organism after it is added to the wells is approximately 5×10^4 CFUs/well.
(§4) Following inoculation of the microdilution trays, the trays are incubated at 35° C. for 16-20 hours and then read. […] The amount of growth in the wells containing the test compound is compared with the amount of growth in the growth-control wells (no test compound) used in each tray. As set forth in Tables 1 and 2, compounds of the present invention were tested against a variety of Gram+ and Gram- pathogenic bacteria resulting in a range of activities, from 1→128 μg/mL depending on the organism tested. The following test organisms were utilized in the assay:
Enterococcus faecalis ATCC 29212
Enterococcus faecalis oc 3041
Enterococcus faecium oc 2993
Methicillin resistant Staphylococcus aureus oc 2089
Methicillin resistant Staphylococcus aureus oc667
Staphylococcus aureus ATCC 29213
Staphylococcus aureus ATCC 6538
Staphylococcus epidermidis oc 2603

gram negative bacteria = experiment: MIC antimicrobial assay, microdilution broth method (NCCLS), gram negative bacteria; type: cell-based; conditions: range over the gram negative test organisms; 35° C., 16-20 hours
Experimental: as §1, §2, §3, §4
Escherichia coli oc 2530 ss
Klebsiella pneumoniae oc 1943
Pseudomonas aeroginosa oc 161
Pseudomonas aeroginosa ATCC 27853

Row | SMILES | IC50 (Kinase A and SpoOF) | MIC (gram positive bacteria) | MIC (gram negative bacteria)
1 | NCCc1cccc(OCCC2Oc3ccccc3N(Cc3ccc(Cl)cc3)C2=O)c1 (stereo not shown) [Compound 8, 2-[2-[3-(2-Aminoethyl)phenoxy]ethyl]-4-(4-chlorobenzyl)-3,4-dihydro-3-oxo-2H-1,4-benzoxazine] | 89 µM | 8 to 16 µg/mL (≈ 18.3 to 36.6 µM) | 8 to 128 µg/mL (≈ 18.3 to 293 µM)
2 | N=C(N)NCCc1ccc(OCCC2Oc3ccc(N)cc3N(Cc3cccc(Cl)c3)C2=O)cc1 (stereo not shown) [Compound 92, 6-Amino-4-(3-chlorobenzyl)-3,4-dihydro-2-{2-[4-(2-guanidinoethyl)phenoxy]ethyl}-3-oxo-2H-1,4-benzoxazine] | 34 µM | 2 to 16 µg/mL (≈ 4.05 to 32.4 µM) | –

Further lines, results first:

Row | IC50 (Kinase A and SpoOF) | MIC (gram positive bacteria) | MIC (gram negative bacteria) | SMILES
3 | 61 µM | 1 to 2 µg/mL (≈ 2.29 to 4.58 µM) | 2 to 64 µg/mL (≈ 4.58 to 146 µM) | NCCc1ccc(OCCC2Oc3ccccc3N(Cc3ccc(Cl)cc3)C2=O)cc1 (stereo not shown) [Compound 6, 2-[2-[4-(2-Aminoethyl)phenoxy]ethyl]-4-(4-chlorobenzyl)-3,4-dihydro-3-oxo-2H-1,4-benzoxazine]
4 | 41 µM | 4 to 8 µg/mL (≈ 9.42 to 18.8 µM) | 4 to 64 µg/mL (≈ 9.42 to 151 µM) | CCCCCN1C(=O)C(CCOc2ccc(CCNC(=N)N)cc2)Oc2ccccc21 (stereo not shown) [Compound 61, 3,4-Dihydro-2-{2-[4-(2-guanidinoethyl)phenoxy]ethyl}-3-oxo-4-pentyl-2H-1,4-benzoxazine]
5 | 23 µM | 1 to 2 µg/mL (≈ 2.22 to 4.43 µM) | – | N=C(N)NCc1ccc(OCCC2CN(Cc3ccccc3Cl)c3ccccc3O2)cc1 (stereo not shown) [Compound 145, 2-[2-[4-(2-guanidinomethyl)phenoxy]ethyl]-4-(2-chlorobenzyl)-3,4-dihydro-2H-1,4-benzoxazine]

— patent US5696117A, “Benzoxazine antimicrobial agents” (Ortho Pharmaceutical Corporation, priority 1995, dated 1997)
